The values below come from patent US7632861B2, “Substituted heterocyclic ethers and their use in CNS disorders” (Bristol-Myers Squibb Company, priority 2007, dated 2009).

Each structure is given as a SMILES string. Some results are limits rather than exact numbers.

One test deals with T1, NK-1 (Homo sapiens, UniProt P25103).
T1 construct: endogenous in cells; host or cells: U373 cells (crude membranes)
The test is described as follows: NK1 radioligand binding assay ([125I]Substance P, U373 cell membranes). The following applies: 1 hour at room temperature. The protocol: (§1) NK-1 Binding assay. Crude membrane suspensions were prepared for the NK1 and SERT radioligand binding assays from U373 cells or recombinant HEK-293 cells expressing hSERT, respectively. Cells were harvested from T-175 flasks as follows. The medium is removed from the flasks and the cells rinsed with HBSS without Ca and without Mg. The cells are then incubated for 5-10 minutes in 10 mM Tris-Cl, pH 7.5, 5 mM EDTA before the cells are lifted with a combination of pipetting and scraping, as needed. To prepare membranes, the cell suspension is collected into centrifuge bottles and homogenized for 30 seconds with a Polytron homogenizer. The suspension is centrifuged for 30 min @ 32,000×g, 4° C., then the supernatant is decanted and the pellet resuspended and homogenized in 50 mM Tris-Cl, pH 7.5, 1 mM EDTA for 10 seconds. The suspension is then centrifuged again for 30 min @ 32,000×g, 4° C. The supernatant is decanted and the pellet resuspended in 50 mM Tris-Cl, pH 7.5, 1 mM EDTA and briefly homogenized. A Bradford assay (Bio-rad) is performed and the membrane preparation diluted to 2 mg/ml with 50 mM Tris-Cl, pH 7.5, 1 mM EDTA. Aliquots are prepared, and then frozen and stored at −80° C.
NK1 radioligand binding assay. Compounds are dissolved in 100% DMSO at a concentration 100× the desired highest assay concentration, serially diluted 1:3 in 100% DMSO, and 0.6 ul/well of each solution is dispensed to a Nunc polypropylene, round bottom, 384 well plate. 100% inhibition is defined with 0.6 ul/well of 1 mM L-733,060 (Sigma L-137) dissolved in DMSO. 30 ul/well of a 2×U373 membrane preparation (267 ug/ml in 100 mM Tris-Cl, pH 7.5, 6 mM MgCl2, 0.2% (v/v) Sigma mammalian protease inhibitor cocktail (Sigma P-8340), and 4 ug/ml chymostatin, Sigma C-7268) and 30 ul/well of a 2×radioligand solution (400 pM [^125I]Substance P (Perkin Elmer NEX-190) in 1% (w/v) BSA (Sigma A-2153), 0.1 mg/ml bacitracin, Sigma B-0125) are added to the well and the reaction incubated for 1 hour at room temperature. The contents of the assay plate are then transferred to a Millipore MultiscreenHTS GF/B filter plate which has been pretreated with 0.5% PEI for at least one hour. The plate is vacuum filtered and washed with 7 washes of 100 ul/well of 20 mM Tris-Cl, pH 7.5, 0.5% (w/v) BSA chilled to 4° C. The filtration and washing is completed in less than 90 s. The plates are air-dried overnight, 12 ul/well of MicroScint scintillation fluid added, and the plates counted in a Trilux.
(§2) Data analysis. The raw data are normalized to percent inhibition using control wells defining 0% (DMSO only) and 100% (selective inhibitor) inhibition which are run on each plate. Each plate is run in triplicate, and the concentration response curve thus generated is fit using the four-parameter dose response equation, Y=Bottom+(Top-Bottom)/(1+10^((LogIC50-X)*HillSlope)) in order to determine the IC50 value for each compound. The radioligand concentration chosen for each assay corresponds to the Kd concentration determined through saturation binding analysis for each assay.

Another test has as its target T2, hSERT (Homo sapiens, UniProt P31645).
T2 construct: expressed in transfected cells; host or cells: HEK-293 cells (crude membranes)
The test is described as follows: SERT radioligand binding assay ([125I]RTI-55, HEK-hSERT membranes). The settings on record: [125I]RTI-55, 1 hour at room temperature. The protocol:
as §1
SERT radioligand binding assay. Compounds are dissolved in 100% DMSO at a concentration 100× the desired highest assay concentration, serially diluted 1:3 in 100% DMSO, and 0.4 ul/well of each solution is dispensed to a Nunc polypropylene, round bottom, 384 well plate. 100% inhibition is defined with 0.4 ul/well of 1 mM fluoxetine (Sigma F-132) dissolved in DMSO. 20 ul/well of a 2×HEK-hSERT membrane preparation (15 ug/ml in 50 mM Tris-Cl, pH 7.5, 120 mM NaCl, 5 mM KCl) and 20 ul/well of a 2×radioligand solution (520 pM [^125I]RTI-55 (Perkin-Elmer NEX-272) in 50 mM Tris-Cl, pH 7.5, 120 mM NaCl, 5 mM KCl) are added to each well and the reaction incubated for 1 hour at room temperature. The contents of the assay plate are then transferred to a Millipore MultiscreenHTS GF/B filter plate which has been pretreated with 0.5% PEI for at least one hour. The plate is vacuum filtered and washed with 7 washes of 100 ul/well of 50 mM Tris-Cl, pH 7.5, 120 mM NaCl, 5 mM KCl chilled to 4° C. The filtration and washing is completed in less than 90 s. The plates are air-dried overnight, 12 ul/well of MicroScint scintillation fluid added, and the plates counted in a Trilux.
as §2

T2 sequence (P31645 whole entry): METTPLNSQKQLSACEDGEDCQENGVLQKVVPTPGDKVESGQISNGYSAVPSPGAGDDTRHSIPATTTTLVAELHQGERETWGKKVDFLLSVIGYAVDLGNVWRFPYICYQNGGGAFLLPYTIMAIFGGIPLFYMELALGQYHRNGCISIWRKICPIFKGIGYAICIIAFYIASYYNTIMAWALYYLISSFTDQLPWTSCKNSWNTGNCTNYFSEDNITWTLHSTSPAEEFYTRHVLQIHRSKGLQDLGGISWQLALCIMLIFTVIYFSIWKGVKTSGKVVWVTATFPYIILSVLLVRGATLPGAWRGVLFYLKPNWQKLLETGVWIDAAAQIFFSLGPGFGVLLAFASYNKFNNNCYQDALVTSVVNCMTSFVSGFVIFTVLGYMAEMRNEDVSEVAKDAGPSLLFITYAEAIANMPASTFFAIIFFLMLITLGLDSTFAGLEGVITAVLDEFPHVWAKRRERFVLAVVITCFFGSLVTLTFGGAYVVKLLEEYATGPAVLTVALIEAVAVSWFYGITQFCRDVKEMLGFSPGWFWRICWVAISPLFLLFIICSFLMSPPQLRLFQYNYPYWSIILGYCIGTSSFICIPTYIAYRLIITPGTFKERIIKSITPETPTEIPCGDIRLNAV
T1 sequence (P25103 whole entry): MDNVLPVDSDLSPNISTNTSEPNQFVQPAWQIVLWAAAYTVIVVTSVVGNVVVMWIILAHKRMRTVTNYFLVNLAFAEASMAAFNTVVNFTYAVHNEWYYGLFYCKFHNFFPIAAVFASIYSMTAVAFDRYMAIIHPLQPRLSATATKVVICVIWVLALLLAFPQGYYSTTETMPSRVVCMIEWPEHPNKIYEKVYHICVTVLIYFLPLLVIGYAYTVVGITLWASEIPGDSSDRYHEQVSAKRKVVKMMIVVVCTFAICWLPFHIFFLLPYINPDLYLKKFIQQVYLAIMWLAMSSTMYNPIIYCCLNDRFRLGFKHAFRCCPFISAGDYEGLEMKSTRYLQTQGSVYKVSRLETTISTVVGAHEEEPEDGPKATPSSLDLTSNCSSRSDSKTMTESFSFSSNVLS

For the molecule `NCCC1(COCc2cc(Br)cc(C(F)(F)F)c2)OCc2ccccc21` (centres unmarked) [Example 1, 2-(1-((3-bromo-5-(trifluoromethyl)benzyloxy)methyl)-1,3-dihydroisobenzofuran-1-yl)ethanamine], the 50% inhibitory concentration (IC50) at NK-1 and on hSERT was 0.01 to 100 nM in each case.
As for `N#Cc1ccc(-c2cc(COCC3(CCN)OCc4ccccc43)cc(C(F)(F)F)c2)cc1` (centres unmarked) [Example 2, 3′-(((1-(2-aminoethyl)-1,3-dihydroisobenzofuran-1-yl)methoxy)methyl)-5′-(trifluoromethyl)biphenyl-4-carbonitrile], the IC50 was 0.01 to 100 nM on NK-1 and 100 to 300 nM at hSERT.
As to `NCCC1(COCc2cc(-c3ccncc3)cc(C(F)(F)F)c2)OCc2ccccc21` (centres unmarked) [Example 3], the IC50 fell in the range of 0.01 to 100 nM on NK-1 and 100 to 300 nM at hSERT.
As for `N#Cc1cccc(-c2cc(COCC3(CCN)OCc4ccccc43)cc(C(F)(F)F)c2)c1` (centres unmarked) [Example 4], the IC50 on NK-1 and at hSERT was 100 to 300 nM in each case.
Take `NCCC1(COCc2cc(-c3ccccc3C(N)=O)cc(C(F)(F)F)c2)OCc2ccccc21` (centres unmarked) [Example 5]: the half-inhibitory concentration (IC50) on NK-1 and on hSERT was more than 300 nM in each case.
On to `N#Cc1ccccc1-c1cc(COCC2(CCN)OCc3ccccc32)cc(C(F)(F)F)c1` (centres unmarked) [Example 6], for which the IC50 on NK-1 and at hSERT was 100 to 300 nM throughout.
As to `COc1ccc(-c2cc(COCC3(CCN)OCc4ccccc43)cc(C(F)(F)F)c2)cc1` (centres unmarked) [Example 7], the half-maximal inhibitory concentration (IC50) on NK-1 is 0.01 to 100 nM; at hSERT, more than 300 nM.
In the case of `NCCC1(COCc2cc(-c3ccc(Cl)cc3)cc(C(F)(F)F)c2)OCc2ccccc21` (centres unmarked) [Example 8], the 50% inhibitory concentration (IC50) on NK-1 lay within 0.01 to 100 nM; on hSERT, 100 to 300 nM.
As for `NCCC1(COCc2cc(-c3ccc(F)cc3)cc(C(F)(F)F)c2)OCc2ccccc21` (centres unmarked) [Example 9], the 50% inhibitory concentration (IC50) on NK-1 was in the range of 0.01 to 100 nM; at hSERT, 100 to 300 nM.
In the same order, the values of `NCCC1(COCc2cc(-c3cccc(F)c3)cc(C(F)(F)F)c2)OCc2ccccc21` (centres unmarked) [Example 10] are 0.01 to 100 nM and 100 to 300 nM.
In the case of `NCCC1(COCc2cc(-c3ccc(F)c(F)c3)cc(C(F)(F)F)c2)OCc2ccccc21` (centres unmarked) [Example 11], the 50% inhibitory concentration (IC50) at NK-1 lay within 0.01 to 100 nM; at hSERT, 100 to 300 nM.
The matching figures for `COc1ccc(-c2cc(COCC3(CCN)OCc4ccccc43)cc(C(F)(F)F)c2)cc1F` (centres unmarked) [Example 12]: 0.01 to 100 nM and more than 300 nM.
On to `NCCC1(COCc2cc(-c3cccc(Cl)c3)cc(C(F)(F)F)c2)OCc2ccccc21` (centres unmarked) [Example 13], for which the figures for the 50% inhibitory concentration (IC50) on NK-1 and on hSERT were 100 to 300 nM and more than 300 nM, respectively.
As to `NCCC1(COCc2cc(-c3ccccc3Cl)cc(C(F)(F)F)c2)OCc2ccccc21` (centres unmarked) [Example 14], the half-inhibitory concentration (IC50) on NK-1 was 100 to 300 nM; at hSERT, more than 300 nM.
Turning to `NCCC1(COCc2cc(-c3ccc(F)cc3F)cc(C(F)(F)F)c2)OCc2ccccc21` (centres unmarked) [Example 15], the IC50 on NK-1 fell in the range of 0.01 to 100 nM; at hSERT it was 100 to 300 nM.
For the molecule `NCCC1(COCc2cc(N3CCOCC3)cc(C(F)(F)F)c2)OCc2ccccc21` (centres unmarked) [Example 16, 2-(1-((3-morpholino-5-(trifluoromethyl)benzyloxy)methyl)-1,3-dihydroisobenzofuran-1-yl)ethanamine], the values for the half-inhibitory concentration (IC50) on NK-1 and on hSERT were 0.01 to 100 nM and more than 300 nM, respectively.
The matching figures for `CN(C)CCC1(COCc2cc(Br)cc(C(F)(F)F)c2)OCc2ccccc21` (centres unmarked) [Example 17, 2-(1-((3-bromo-5-(trifluoromethyl)benzyloxy)methyl)-1,3-dihydroisobenzofuran-1-yl)-N,N-dimethylethanamine]: 0.01 to 100 nM and 0.01 to 100 nM.
In the case of `CN(C)CCC1(COCc2cc(-c3ccc(C#N)cc3)cc(C(F)(F)F)c2)OCc2ccccc21` (centres unmarked) [Example 18], the half-inhibitory concentration (IC50) at NK-1 was in the range of 0.01 to 100 nM; at hSERT, 100 to 300 nM.
On to `CN(C)CCC1(COCc2cc(-c3ccncc3)cc(C(F)(F)F)c2)OCc2ccccc21` (centres unmarked) [Example 19], for which the half-inhibitory concentration (IC50) at NK-1 and at hSERT was 0.01 to 100 nM throughout.
With `CN(C)CCC1(COCc2cc(N3CCOCC3)cc(C(F)(F)F)c2)OCc2ccccc21` (centres unmarked) [Example 20, N,N-dimethyl-2-(1-((3-morpholino-5-(trifluoromethyl)benzyloxy)methyl)-1,3-dihydroisobenzofuran-1-yl)ethanamine], the IC50 at NK-1 and at hSERT was 0.01 to 100 nM in each case.
`CN(C)CCC1(COCc2cc(C(F)(F)F)cc(C(F)(F)F)c2)OCc2cc(C#N)ccc21` (centres unmarked) [Example 21]: the figures for the IC50 at NK-1 and on hSERT were 0.01 to 100 nM and more than 300 nM, respectively.
The matching figures for `CN(C)CCC1(COCc2cc(Br)cc(C(F)(F)F)c2)OCc2cc(C#N)ccc21` (centres unmarked) [Example 22]: 0.01 to 100 nM and more than 300 nM.
The matching figures for `N#Cc1ccc2c(c1)COC2(CCN)COCc1cc(C(F)(F)F)cc(C(F)(F)F)c1` (centres unmarked) [Example 23]: 0.01 to 100 nM and 100 to 300 nM.
`N#Cc1ccc2c(c1)COC2(CCN)COCc1cc(Br)cc(C(F)(F)F)c1` (centres unmarked) [Example 24]: the IC50 on NK-1 and on hSERT was 0.01 to 100 nM in each case.
Regarding `CN(C)CCC1(COCc2cc(-c3ccc(C#N)cc3)cc(C(F)(F)F)c2)OCc2cc(C#N)ccc21` (centres unmarked) [Example 25], the concentration for half-maximal inhibition (IC50) at NK-1 was 0.01 to 100 nM; at hSERT it was more than 300 nM.
As for `CN(C)CCC1(COCc2cc(-c3ccncc3)cc(C(F)(F)F)c2)OCc2cc(C#N)ccc21` (centres unmarked) [Example 26], the IC50 was 100 to 300 nM on NK-1 and more than 300 nM at hSERT.
In the same order, the values of `CC(OCC1(CCN(C)C)OCc2ccccc21)c1cc(Br)cc(C(F)(F)F)c1` (centres unmarked) [Example 27] are 0.01 to 100 nM and 100 to 300 nM.
The matching figures for `CC(OCC1(CCN)OCc2ccccc21)c1cc(Br)cc(C(F)(F)F)c1` (centres unmarked) [Example 28]: 0.01 to 100 nM and more than 300 nM.
For the molecule `CC(OCC1(CCN(C)C)OCc2ccccc21)c1cc(C(F)(F)F)cc(C(F)(F)F)c1` (centres unmarked) [Example 29], the figures for the IC50 at NK-1 and on hSERT were 0.01 to 100 nM and more than 300 nM, respectively.
For the molecule `CC(OCC1(CCN)OCc2ccccc21)c1cc(C(F)(F)F)cc(C(F)(F)F)c1` (centres unmarked) [Example 30], the IC50 on NK-1 is 0.01 to 100 nM; at hSERT, more than 300 nM.
In the same order, the values of `CN(C)CCC1(COCc2cc(Cl)cc(Br)c2)OCc2ccccc21` (centres unmarked) [Example 31] are 100 to 300 nM and 0.01 to 100 nM.
Consider `NCCC1(COCc2cc(Cl)cc(Br)c2)OCc2ccccc21` (centres unmarked) [Example 32], for which the IC50 on NK-1 and on hSERT was 0.01 to 100 nM throughout.
`CN(C)CCC1(COCc2cc(Cl)cc(-c3ccc(C#N)cc3)c2)OCc2ccccc21` (centres unmarked) [Example 33]: the IC50 on NK-1 and at hSERT was 0.01 to 100 nM throughout.
Take `N#Cc1ccc(-c2cc(Cl)cc(COCC3(CCN)OCc4ccccc43)c2)cc1` (centres unmarked) [Example 34]: the IC50 at NK-1 and on hSERT was 0.01 to 100 nM throughout.

A word on the IC50: it is the concentration needed to halve the response being measured.
